This note sets out measurements from ChEMBL document CHEMBL6074680, “Structure-Based Discovery of a Series of Covalent, Orally Bioavailable, and Selective BFL1 Inhibitors” (J Med Chem, 2024).

pEC50, pIC50: −log10 of the molar value. Activity calls are given as the source filed them.

Series [1] addresses Apoptosis regulator Bcl-2 (Homo sapiens, UniProt P10415). Description: Inhibition of BCL2 (unknown origin) by FRET assay.
Series [2] is described as follows: Metabolic stability in mouse hepatocytes assessed as intrinsic clearance measured per 10^6 cells. The settings on record: read-out: CLH. Type of series: ADME, cell-based, Hepatocyte.
A short description of series [3]: Half life in CD-1 mouse at 1 mg/kg, po or 0.5 mg/kg, iv measured upto 24 hrs by LC-MS/MS analysis. Type of series: ADME, organism-based. The conditions noted are these: in vivo.
The nature of series [4]: AUC in CD-1 mouse at 1 mg/kg, po or 0.5 mg/kg, iv measured upto 24 hrs by LC-MS/MS analysis. Type of series: ADME, organism-based. The conditions noted are these: in vivo.
Series [5] can be described thus: Apparent permeability across apical to basolateral side in human Caco-2 cells measured upto 120 mins by LC-MS/MS analysis. Type of series: ADME, cell-based. (Caco-2 cells form a polarised layer with tight junctions and transporters.)
The nature of series [6]: Cmax in CD-1 mouse at 1 mg/kg, po or 0.5 mg/kg, iv measured upto 24 hrs by LC-MS/MS analysis. Type of series: ADME, organism-based. The settings on record: in vivo.
Series [7] relates to SU-DHL-1. The experiment in a line: Antiproliferative activity against human SU-DHL-1 cells assessed as cell viability incubated for 24 hrs by celltiter-glo assay. The settings on record: SU-DHL-1, 24 h. Type of series: functional, cell-based. A general note: Cellular ATP, detected with luciferase, serves as a proxy for viable cell number.
Series [8] is described as follows: Lipophilicity, log D of compound in 1-octanol at pH 7.4 incubated for 4 hrs by HPLC-UV analysis. Type of series: physicochemical. The settings on record: 1-octanol / aqueous phase at pH 7.4, pH 7.4.
Series [9] relates to SU-DHL-1. Description: Induction of apoptosis in human SU-DHL-1 cells assessed as caspase activation in presence of AZD5991 incubated for 6 hrs by caspaseGlo 3/7 reagent based assay. The conditions noted are these: SU-DHL-1, 6 h. Type of series: functional, cell-based.
Series [10] in a line: Metabolic stability in human hepatocytes assessed as intrinsic clearance measured per 10^6 cells. Type of series: ADME, cell-based, Hepatocyte. The conditions noted are these: read-out: CLH.
Series [11] deals with Bcl-2-like protein 1 (Homo sapiens, UniProt Q07817). Description: Inhibition of Bcl-Xl (unknown origin) by FRET assay.
A short description of series [12]: Oral bioavailability in CD-1 mouse at 1 mg/kg or 0.5 mg/kg measured upto 24 hrs by LC-MS/MS analysis. Type of series: ADME, organism-based. The conditions noted are these: in vivo.
The nature of series [13]: Metabolic stability in rat hepatocytes assessed as intrinsic clearance measured per 10^6 cells. Type of series: ADME, cell-based, Hepatocyte.
The target in series [14] is T1, BCL2A1/BID (Homo sapiens, UniProt Q16548).
T1 sequence (Q16548 whole entry): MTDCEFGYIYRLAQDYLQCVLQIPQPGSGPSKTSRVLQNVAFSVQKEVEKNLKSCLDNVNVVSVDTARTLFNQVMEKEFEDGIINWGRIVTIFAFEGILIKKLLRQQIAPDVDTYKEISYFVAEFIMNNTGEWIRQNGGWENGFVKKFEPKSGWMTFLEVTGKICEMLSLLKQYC
T1 sequence (P55957 whole entry): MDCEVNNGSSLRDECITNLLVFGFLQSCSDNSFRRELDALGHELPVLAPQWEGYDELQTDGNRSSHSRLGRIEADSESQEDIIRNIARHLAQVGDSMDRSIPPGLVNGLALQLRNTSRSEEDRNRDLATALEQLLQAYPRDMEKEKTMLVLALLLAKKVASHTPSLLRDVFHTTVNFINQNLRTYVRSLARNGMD
The experiment in a line: Inhibition of BFL-1/ BH3 (unknown origin) interaction incubated for 2 hrs by TR-FRET assay. Type of series: protein assay. Background: Time-resolved FRET reads energy transfer from a long-lived donor to a nearby acceptor.

The nature of series [15]: Plasma protein binding in mouse assessed as unbound fraction. Type of series: ADME, cell-free.
Series [16] in a line: Volume of distribution at steady state in CD-1 mouse at 1 mg/kg, po or 0.5 mg/kg, iv measured upto 24 hrs by LC-MS/MS analysis. Type of series: ADME, organism-based. The settings on record: in vivo.
The subject of series [17] is Mus musculus. The experiment in a line: Effect on BFL1 level in po dosed SCID mouse measured for 6 hrs by MSD assay. Type of series: functional, organism-based. The conditions noted are these: dose 100-300 mg/kg.
The test system of series [18] is KARPAS-422. Description: Antiproliferative activity against human KARPAS-422 cells assessed as cell survival at 10 uM incubated for 24 hrs by celltiter-glo assay. Type of series: functional, cell-based.
Series [19] has as its system OCI-Ly10. Description: Induction of apoptosis in human OCI-Ly10 cells assessed as caspase activation incubated for 6 hrs by caspaseGlo 3/7 reagent based assay. Type of series: functional, cell-based.
Series [20] deals with Induced myeloid leukemia cell differentiation protein Mcl-1 (Homo sapiens, UniProt Q07820). The experiment in a line: Inhibition of MCL1 (unknown origin) by FRET assay.
In series [21] the test system is Mus musculus. Description: Effect on cleaved caspase 3 level in po dosed SCID mouse measured for 6 hrs by MSD assay. Type of series: functional, organism-based. The conditions noted are these: dose 100-300 mg/kg.
The test system of series [22] is SU-DHL-1. Description: Antiproliferative activity against human SU-DHL-1 cells assessed as cell survival upto 100 uM incubated for 24 hrs by celltiter-glo assay. Type of series: functional, cell-based.
Series [23] concerns KARPAS-422. The experiment in a line: Antiproliferative activity against BFL1 null human KARPAS-422 cells assessed as cell viability incubated for 24 hrs by celltiter-glo assay. Type of series: functional, cell-based.
Series [24] concerns the target Cannabinoid receptor 1 (Homo sapiens, UniProt P21554). The experiment in a line: Inhibition of human CB1 receptor.
A short description of series [25]: GSH reactivity in PBS buffer at pH 7.4 assessed as half life by LC-UV/MS analysis. Type of series: physicochemical.
Series [26] can be described thus: Metabolic stability in human liver microsome assessed as intrinsic clearance. Type of series: ADME. The settings on record: human liver microsomes, read-out: CLH.

Chain of Bcl-2-like protein 1 (Q07817 whole entry): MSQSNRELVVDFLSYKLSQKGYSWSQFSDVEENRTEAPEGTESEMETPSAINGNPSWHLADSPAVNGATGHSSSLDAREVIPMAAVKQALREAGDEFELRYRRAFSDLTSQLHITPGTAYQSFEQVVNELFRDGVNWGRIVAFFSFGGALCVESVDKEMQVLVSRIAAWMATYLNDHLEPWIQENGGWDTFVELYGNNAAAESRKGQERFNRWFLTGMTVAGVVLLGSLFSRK
Chain of Apoptosis regulator Bcl-2 (P10415 whole entry): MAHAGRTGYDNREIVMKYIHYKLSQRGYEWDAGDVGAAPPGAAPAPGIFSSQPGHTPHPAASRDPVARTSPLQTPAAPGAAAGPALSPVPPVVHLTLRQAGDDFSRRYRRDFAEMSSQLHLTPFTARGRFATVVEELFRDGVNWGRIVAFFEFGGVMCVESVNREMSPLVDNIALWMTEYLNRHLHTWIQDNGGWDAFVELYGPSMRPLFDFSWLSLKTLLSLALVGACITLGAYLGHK
Chain of Cannabinoid receptor 1 (P21554 whole entry): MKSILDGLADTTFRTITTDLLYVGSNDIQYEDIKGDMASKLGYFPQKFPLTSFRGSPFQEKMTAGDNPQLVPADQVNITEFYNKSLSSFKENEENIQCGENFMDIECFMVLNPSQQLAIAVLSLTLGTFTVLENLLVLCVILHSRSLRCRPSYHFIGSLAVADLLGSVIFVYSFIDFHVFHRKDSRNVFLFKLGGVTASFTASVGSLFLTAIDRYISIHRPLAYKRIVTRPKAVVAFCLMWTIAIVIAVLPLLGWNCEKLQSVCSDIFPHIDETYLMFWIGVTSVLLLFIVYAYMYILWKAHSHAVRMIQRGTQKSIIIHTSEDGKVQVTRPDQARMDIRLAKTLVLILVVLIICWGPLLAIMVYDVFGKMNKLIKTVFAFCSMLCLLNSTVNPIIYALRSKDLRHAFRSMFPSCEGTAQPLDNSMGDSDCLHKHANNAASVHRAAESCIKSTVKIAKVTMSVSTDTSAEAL
Chain of Induced myeloid leukemia cell differentiation protein Mcl-1 (Q07820 whole entry): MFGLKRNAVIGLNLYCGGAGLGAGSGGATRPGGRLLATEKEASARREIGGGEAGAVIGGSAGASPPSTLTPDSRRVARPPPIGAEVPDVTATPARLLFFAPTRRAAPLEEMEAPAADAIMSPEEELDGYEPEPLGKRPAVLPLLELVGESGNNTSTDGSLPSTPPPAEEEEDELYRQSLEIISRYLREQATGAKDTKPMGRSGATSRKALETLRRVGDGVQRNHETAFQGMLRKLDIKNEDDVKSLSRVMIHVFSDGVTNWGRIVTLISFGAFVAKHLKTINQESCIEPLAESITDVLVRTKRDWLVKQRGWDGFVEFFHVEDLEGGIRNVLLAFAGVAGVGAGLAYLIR

Regarding `C=CC(=O)N(c1ccc(O[C@@H]2CC[C@@H](NC(=O)N[C@@H]3CCS(=O)(=O)C3)C2)c(Cl)c1)[C@@H](C)c1ccc(Cl)cc1`, the negative logarithm of the IC50 (pIC50) in series [1] was below 4.52; in [11], below 4.52; in series [14], 8.27. Moreover, the hepatocyte CLint in [2] came out at 42 µL/min/1e6 cells; in series [10], 11 µL/min/1e6 cells; in [13] (rat hepatocytes, read-out: CLH) it was 55 µL/min/1e6 cells. In [3], this compound gave a half-life of 0.75 h. This compound also registered an AUC at 24 h in [4] of 0.036 µM·h. Also, the Papp A→B at 2 h in [5] is 16 ×10⁻⁶ cm/s. Besides, in series [6], the Cmax worked out at 15 nM. Further, the pEC50 was 7.32 in series [7] and 7.42 in series [9]. In [8], the logD at 4 h is 4.2. Further, in series [12], the bioavailability was 16%. Besides, the fraction unbound in series [15] is 0.013. The compound further returned a Vdss in [16] of 4.1 L/kg.

With `C=CC(=O)N(c1ccc(O[C@@H]2CC[C@@H](N)C2)c(F)c1)[C@@H](C)c1ccc(Cl)cc1`, the Activity entry in [17] and in [21] was “Dose-dependent-effect” each time. The outcome in series [18] was inactive. The result in series [19], in series [22] and in series [23] was Active. Moreover, the pIC50 in series [20] and in [24] was below 4.00 throughout. The figures for the pEC50 in series [7] and in [9] were 6.60 and 6.46, respectively.

On to `C=CC(=O)N(c1cc(F)c(O[C@@H]2CC[C@@H](N)C2)cc1C)[C@@H](C)c1ccc(Cl)cc1`, for which, in series [25], the half-life was 4.47 h. Further, the microsomal CLint in series [26] worked out at 9.4 µL/min/mg. In addition, in [8], the logD at 4 h turned out to be 2.7. Moreover, the pEC50 in series [9] was 6.28. Further, the hepatocyte CLint in series [13] (hepatocytes) is 12 µL/min/1e6 cells. Moreover, the pIC50 in series [14] was 7.51.

For `C=CC(=O)N(c1ccc(O[C@@H]2CC[C@@H](NC(=O)N[C@@H]3CCS(=O)(=O)C3)C2)c(F)c1)[C@@H](C)c1ccc(Cl)cc1`, the figures for the pIC50 in [1], in series [11] and in series [14] were below 4.52, below 4.52 and 8.07, respectively. Further, the hepatocyte CLint was determined as 69 µL/min/1e6 cells in series [2]; 7.4 µL/min/1e6 cells in series [10]; 59 µL/min/1e6 cells in [13] (rat hepatocytes, read-out: CLH). The half-life in series [3] is 3.1 h. Moreover, the AUC at 24 h in series [4] worked out at 0.19 µM·h. Also, the Papp A→B at 2 h in series [5] was below 11 ×10⁻⁶ cm/s. The compound further had a Cmax in series [6] of 53 nM. Further, the pEC50 in series [7] was 6.72; in series [9] it was 7.08. In addition, the logD at 4 h in [8] was 3.7. The compound further returned a bioavailability in series [12] of 37%. The fraction unbound in series [15] was found to be 0.027. In addition, the Vdss in series [16] came to 4 L/kg.

A word on the pIC50: it is the IC50 on a negative log10 scale, so that one unit is a factor of ten. What is called half-life is the time needed for the level to fall by half in the phase considered. In general, AUC refers to concentration integrated over time. A high value points to more exposure. One may read the Papp A→B as how fast a substance crosses the layer from the apical side. The term Cmax denotes the highest concentration seen after dosing. As usually defined, the pEC50 is the negative decadic logarithm of the EC50, by convention in mol/L. In general, logD refers to lipophilicity at a set pH, counting ionised and neutral species. A high value points to higher lipophilicity. What is called bioavailability is the share of a dose that reaches the circulation, judged against a reference dose that is usually intravenous. Lower therefore signals poor availability. A word on the fraction unbound: it is free concentration divided by total concentration.
